Laboratory results published in patent US20200181284A1, “EPIGENETIC INHIBITORS FOR SENSITIZING HEMATOLOGIC OR OTHER MALIGNANCIES TO GLUCOCORTICOID THERAPY” (UNIVERSITY OF SOUTHERN CALIFORNIA, priority 2017, published 2020).

Columns and labels:
[1] = system: lung, breast and glioblastoma cancers; conditions: dosages of 5-50 mg/kg; cited from earlier work
[2] = system: EHMT2 phosphorylation; test: Phosphorylation of EHMT2 in NALM-6 cells (pan ph-T immunoprecipitation, EHMT2 immunoblot); assay type: cell-based, human; conditions: NALM-6, 0.75 μM ZM447439, 24 h
Experimental: Cells were treated as indicated, and cell extracts were prepared in RIPA buffer ([…] Tris-HCl, pH 8, 150 mM NaCL, 1 mM EDTA, 1% NP-40, and 0.25% deoxycholate) supplemented with protease inhibitor tablets (Roche Molecular Biochemicals) and phosphatase inhibitors (1 mM NaF, 1 mM Na3VO4, and 1 mM β-glycerophosphate). Protein extracts were incubated overnight at 4° C. with shaking with 1 μg of antibodies against EHMT2 (Sigma G6919), EHMT1 (Millipore 09-078), or pan phospho-threonine (Millipore AB1607). Protein A/G plus agarose beads (Santa Cruz sc-2003) were added, and the mixture was incubated 2 h at 4° C. The immunoprecipitates were separated on SDS-PAGE. […]
FIGS. 48A, 48B, 48C, 48D, 48E, and 48F show the effect of AURKB inhibitors on EHMT2 phosphorylation and dex-induced cell death. […] In each condition, the value measured with dex was normalized to the fluorescence value measured with ethanol. Percentage of survival is shown as the mean±SEM of 4 independent experiments and p-values for individual dex concentrations were calculated using a paired t-test. *p≤0.05, **p≤0.01, * * *p≤0.001. […] EC50s were calculated as the concentration at which half the cells remained alive, compare to vehicle controls. Error bars depict the SEM of 4 independent experiments and p-value was calculated to compare ZM treatment to DMSO using a paired t-test **p≤0.01, * * *p≤0.001. […]

[3] = system: phosphorylation of GR or HP1γ; test: Immunoblot of GR and HP1γ phosphorylation in A549 cells; assay type: cell-based, human; conditions: 2 μM, 24 h
Experimental: Cos-7 or A549 cells were seeded on 10-cm dishes the day before transfection. Cells were transiently transfected (where indicated) using Lipofectamine 2000 (Invitrogen) with 5 μg each of the indicated plasmids according to the manufacturer's protocol. At 48 h after transfection, cells were treated (or not) with dex for the indicated time period, and cell extracts were prepared in RIPA buffer (50 mM Tris-HCl, pH 8, 150 mM NaCl, 1 mM EDTA, 1% NP-40 and 0.25% deoxycholate) supplemented with protease inhibitor tablets (Roche Molecular Biochemicals) and phosphatase inhibitors (1 mM NaF, 1 mM Na3VO4 and 1 mM β-glycerophosphate). Protein extracts were incubated with 1 μg of the indicated primary antibodies overnight at 4° C. with shaking. Protein A/G Plus Agarose (Santa Cruz sc-2003) beads were added and the mixture was incubated 2 hr at 4° C. The immunoprecipitates were separated on SDS-PAGE. […] In immunoprecipitation experiments 3% of the input of each sample was analyzed by immunoblot using the antibodies listed.
102371 Aurora kinase B inhibition has no effect of phosphorylation of GR or HP1γ as highlighted in the results as shown in FIG. 27E. […] Whole-cell extracts were analyzed with the listed antibodies by immunoblot.

Compound | efficacy in mouse xenograft models [1] | phosphorylation of EHMT2 [2] | phosphorylation of GR or HP1γ [3]
Clc1ccc(N/N=C(\c2ccccc2)c2ccccn2)nc1 [JIB-04, 5-chloro-N-[(E)-[phenyl(pyridin-2-yl)methylidene]amino]pyridin-2-amine] | effective |  | 
COc1cc2c(Nc3ccc(NC(=O)c4ccccc4)cc3)ncnc2cc1OCCCN1CCOCC1 [ZM447439, N-[4-[[6-methoxy-7-(3-morpholin-4-ylpropoxy)quinazolin-4-yl]amino]phenyl]benzamide] |  | reduced | no effect
